For three molecules, Kd results are on record in paper PMC9171197, “The Impact of Chromate on Pseudomonas aeruginosa Molybdenum Homeostasis” (Frontiers in Microbiology, 2022).

This assay concerns the target T1, P. aeruginosa PAO1 ModA (Pseudomonas aeruginosa, UniProt Q9I2N2).
T1 construct: N-terminal His6 tag (pMCSG7) cleaved by TEV protease; E. coli BL21-Gold (DE3); metal-free
As to the kind of experiment: isothermal titration calorimetry. The format is binding. The source says:
isothermal titration calorimetry on P. aeruginosa PAO1 ModA
On the technique in general: In ITC the heat of successive injections is recorded.

Like-named read-outs stand apart in the source and are kept apart here.

T1 sequence (Q9I2N2 23-251): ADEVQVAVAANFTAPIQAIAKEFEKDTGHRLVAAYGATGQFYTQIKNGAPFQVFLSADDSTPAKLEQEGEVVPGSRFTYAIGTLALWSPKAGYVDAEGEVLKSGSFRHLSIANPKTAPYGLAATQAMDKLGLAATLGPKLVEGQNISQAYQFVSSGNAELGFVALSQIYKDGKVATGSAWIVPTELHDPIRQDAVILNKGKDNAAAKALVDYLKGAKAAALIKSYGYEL

On to `[O]=[Cr](=[O])([OH])[OH]` [CrO, chromate], for which, where the note is “read-out: CrO-ModA”, the Kd worked out at 927 ± 87.7 nM.
Turning to `[O]=[Mo](=[O])([OH])[OH]` [MoO, molybdate], for the setting “read-out: MoO-ModA”, the Kd amounted to 1 ± 1.3 nM.
Turning to `[O]=[W](=[O])([OH])[OH]` [WO, tungstate], the Kd (read-out: WO-ModA) was 1.2 ± 2 nM.
